Source: US12558342B2, “2-[2-({12,12-dimethyl-4-oxo-6-phenyl-3,11-dioxatricyclo[8.4.0.0,2,7]tetradeca-1,5,7,9-tetraen-8-yl}oxy)acetamido]benzamide and derivatives as inhibitor of clock:bmal1 interaction for the treatment of circadian rhythm diseases and disorders” (KOC UNIVERSITESI, priority 2019, dated 2026)

Tests used:
Bmal1::dluc U2OS cells = assay: Real-time monitoring of circadian rhythm, Bmal1::dluc U2OS; type: cell-based, human
Description: We used Bmal1::dluc U2-OS and Per1::dluc NIH 3T3, and continuously monitored the bioluminescence to record circadian rhythm. This experiment was performed in 96-well plates (triplicates) and 35-mm dishes (duplicates) in the secondary screen and detailed characterization steps respectively. Briefly, cells were seeded to reach confluency. A day after, the medium was replaced with DMEM containing 0.1 μM Dexamethasone to synchronize cells. Two hour later, 0.1 mM of Luciferin was freshly added to the recording medium (low glucose DMEM powder (with L-glutamine) supplemented with 10 mM HEPES, […] sodium bicarbonate, 3.5 mg/ml D-(+)-glucose powder, 5% FBS, 0.1 mM NEAA, 100 U/ml penicillin and […]). Then, the medium was replaced with recording medium containing appropriate amount of each compound. Control cells were treated with 0.5% vehicle (DMSO). For a detailed characterization of CLK8, whenever required, and without any further medium change, small molecule treatment was postponed to two days after bioluminescence recording started. The 96-well plates were covered and bioluminescence was monitored by Synergy H1 Hybrid Multi-Mode Reader every 32 minutes. Similarly, we sealed the 35-mm plates with vacuum grease prior to mounting them on a LumiCycle luminometer (Actimetrics). Bioluminescence was recorded every 10 minutes for 4-6 days. Raw data (counts/sec) were plotted against time. The period and amplitude parameters were obtained using LumiCycle Analysis software (Actimetrics). First, the raw data was baseline fitted (n=1), and then the baseline-subtracted data was fitted to a sine wave (damped). The first day's data was excluded from the analysis due to transient perturbations of luminescence after the medium change.
We used Bmal1::dluc U2-OS and Per1::dluc NIH 3T3, and continuously monitored the bioluminescence to record circadian rhythm. This experiment was performed in 96-well plates (triplicates) and 35-mm dishes (duplicates) in the secondary screen and detailed characterization steps respectively. Briefly, cells were seeded to reach confluency. A day after, the medium was replaced with DMEM containing 0.1 μM Dexamethasone to synchronize cells. Two hour later, 0.1 mM of Luciferin was freshly added to the recording medium (low glucose DMEM powder (with L-glutamine) supplemented with 10 mM HEPES, 0.35 mg/ml sodium bicarbonate, 3.5 mg/ml D-(+)-glucose powder, 5% FBS, 0.1 mM NEAA, 100 U/ml penicillin and […]). […] The 96-well plates were covered and bioluminescence was monitored by Synergy H1 Hybrid Multi-Mode Reader every 32 minutes. […] Bioluminescence was recorded every 10 minutes for 4-6 days. […] The first day's data was excluded from the analysis due to transient perturbations of luminescence after the medium change.

BMAL1 = target: T1, BMAL1 (Mus musculus, UniProt Q9WTL8); assay: LC-MS/MS of pull-down precipitates, BMAL1; type: binding; conditions: Competitor 0 μM
T1 construct: expressed in transfected cells; host or cells: HEK 293T
Description: HEK293T cells were transiently transfected with tag-free hsClock and mBmal1. After 48 hours of transfection, cells were harvested and whole cell lysate was prepared with ice-cold lysis buffer (50 mM Tris-HCl pH 7.4, 2 mM EDTA, 1 mM MgCl2, 0.2% NP-40, 1 mM sodium orthovanadate, 1 mM sodium fluoride and protease inhibitor cocktail) followed by centrifugation at 7000×g at 4° C. for 10 minutes. Lysate was diluted with ice-cold 2× binding buffer (100 mM Tris-HCl pH 7.4, 300 mM NaCl, 0.2% NP-40, 2 mM sodium orthovanadate, 2 mM sodium fluoride, and protease inhibitor cocktail) 27. The lysate was divided into three fractions to be treated with either DMSO, or 20 μM of bitoinylated-CLK8 (bait) with or without 200 μM CLK8 (competitor). […]
The next step was to check for off-targets of CLK8. […] Since the amount of precipitated endogenous CLOCK was insufficient to be detected in LC-MS/MS, whole cell lysate of HEK 293T cells overexpressing CLOCK and BMAL1 were used for LC-MS/MS. We determined proteins that potentially bind to CLK8 by utilizing a minimum threshold for peptide spectrum matches and coverage equal to those of the main target, CLOCK. We also excluded proteins that have been detected in negative controls of the CRAPome database (32), assuming them as abundant sticky proteins. […] BMAL1 was detected in lower amounts when a competitor was present. […]

T1 sequence (Q9WTL8 whole entry): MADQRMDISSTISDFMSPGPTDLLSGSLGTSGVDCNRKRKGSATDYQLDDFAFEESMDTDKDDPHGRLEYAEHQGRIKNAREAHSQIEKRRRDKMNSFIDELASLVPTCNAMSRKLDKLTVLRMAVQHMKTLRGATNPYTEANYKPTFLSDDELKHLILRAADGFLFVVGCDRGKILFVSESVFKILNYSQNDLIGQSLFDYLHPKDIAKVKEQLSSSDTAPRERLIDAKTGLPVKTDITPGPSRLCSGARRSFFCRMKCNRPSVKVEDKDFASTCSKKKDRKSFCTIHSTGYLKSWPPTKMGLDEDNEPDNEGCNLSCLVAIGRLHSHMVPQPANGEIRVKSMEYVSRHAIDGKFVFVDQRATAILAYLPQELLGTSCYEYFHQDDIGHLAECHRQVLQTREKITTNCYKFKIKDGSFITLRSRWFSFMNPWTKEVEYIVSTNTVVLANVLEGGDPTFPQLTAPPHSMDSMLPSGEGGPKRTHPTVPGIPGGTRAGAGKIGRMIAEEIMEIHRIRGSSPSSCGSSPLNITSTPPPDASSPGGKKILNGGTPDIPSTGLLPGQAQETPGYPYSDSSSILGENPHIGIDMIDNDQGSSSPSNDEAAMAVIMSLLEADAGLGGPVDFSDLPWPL

Compound: CC1(C)CCc2c(cc(OCC(=O)Nc3ccccc3C(N)=O)c3c(-c4ccccc4)cc(=O)oc23)O1 [CLK8, 2-[2-({12,12-dimethyl-4-oxo-6-phenyl-3,11-dioxatricyclo [8.4.0.0,2,7]tetradeca-1,5,7,9-tetraen-8-yl}oxy)acetamido] benzamide]
- enhancement of amplitude (Bmal1::dluc U2OS cells; 10 μM, treated two days after synchronization): more than 50%
- period of circadian rhythm (Bmal1::dluc U2OS cells; U2OS-Bmal1::dLuc): no period changes
- amplitude of circadian rhythm (Bmal1::dluc U2OS cells; U2OS-Bmal1::dLuc, dose dependent): enhances the amplitude
- phase of the first trough after treatment (Bmal1::dluc U2OS cells; treated two days after synchronization, vs DMSO control): advanced the phase of the first trough
- Peptide spectrum matches, BMAL1 (BMAL1): 56
